From patent US20230331715A1, “SPIRO[3.3]HEPTANE DERIVATIVES FOR THE TREATMENT AND PROPHYLAXIS OF HEPATITIS B VIRUS INFECTION” (priority 2020, published 2023)
Like-named read-outs stand apart in the source and are kept apart here.

Key:
Assay type in all cases: cell-based
HBsAg = experiment: PHH HBV natural infection assay, HBsAg (alphalisa)
Procedure: (§1) Detailed procedures regarding primary human hepatocyte (PHH) HBV natural infection assay are described as below. One tube of frozen PHH (10 million cells) is thawed in 37° C. water bath and then transferred to 20 mL of PHH thawing medium (Sigma, InVitroGRO HT Medium, Cat. S03319) with gently mixing. The cells were then centrifuged at […] for 5 min, the supernatant was discarded and the tube was refilled with 25 mL of PHH plating medium (Sigma, InVitroGRO CP Medium, Cat. S03317). The tube was shaken very gently to re-suspend all cells, and then 50 µl of cells were transferred to each well 384-well collagen I coated plate with appropriate liquid handling equipment, e.g. Integra VIAFLO384 or Agilent Bravo. The cells were then cultured for 24 hours in a cell incubator. For HBV infection, after PHH attachment on the culture plate, the plating medium was removed and replenished with PHH culture medium containing HBV virus. The PHH culture medium was prepared with Dulbecco’s Modified Eagle Medium (DMEM)/F12 (1: 1 in volume ratio) containing 10% fetal bovine serum (Gibco, Cat. 10099141), 5 ng/mL human epidermal growth factor (Gibco, Cat.PHG0311L), 20 ng/mL dexamethasone (Sigma, Cat.D4902-100mg), 250 ng/mL human recombinant insulin (Gibco, Cat.41400045) and 100 U/mL penicillin. HBV virus at 200 genome equivalent (GE) per cell with 4% PEG8000 (Sigma, Cat.P1458) containing culture medium were added to the PHH culture medium for infection. The cells were then cultured for 24 hours in cell incubator. Then the cell culture supernatant was removed. The HBV-infected PHH were cultured with sandwich culture method with PHH culture medium containing 1% DMSO and 0.25 mg/mL matrix gel for 72 hours. The supernatant was then refreshed with PHH culture medium containing different concentrations of testing compounds for two times with 72-hour interval. At the end of treatment, the supernatant was collected for viral markers measurements, including HBsAg, HBeAg, HBV DNA and cytotoxicity. HBsAg and HBeAg were detected using alphalisa method using their specific antibodies. For HBV DNA detection, HBV DNA Quantitative Fluorescence Diagnostic Kit (Sansure Biotech Inc.) was used following the manufacture’s protocol. Cytotoxicity was determined using Cell Counting Kit-8 (CCK8, Dojindo Molecular Technologies, Inc.).
(§2) The compounds of the present invention were tested for their capacity to inhibit HBsAg and HBeAg as described herein.

HBeAg = experiment: PHH HBV natural infection assay, HBeAg (alphalisa)
Procedure: as §1, §2

[1] = Cytotoxicity in PHH natural infection assay (Cell Counting Kit-8); conditions: human; HBV-infected PHH, CCK8, compound refreshed two times with 72-hour interval
Procedure: as §1

[2] = Hepatitis B virus, 72 h, read-out: HBsAg IC50, HBV-infected PHH, culture supernatant, compound refreshed two times with 72-hour interval, alphalisa
[3] = Hepatitis B virus, 72 h, read-out: HBeAg IC50, HBV-infected PHH, culture supernatant, compound refreshed two times with 72-hour interval, alphalisa
[4] = read-out: HBsAg IC50, HBV-infected PHH, culture supernatant, compound refreshed two times with 72-hour interval, alphalisa
[5] = read-out: HBeAg IC50, HBV-infected PHH, culture supernatant, compound refreshed two times with 72-hour interval, alphalisa

| Structure (SMILES) | IC50 (HBsAg; [2]) [µM] | IC50 (HBeAg; [3]) [µM] | CC50 at 144 h [1] [µM] | IC50 (HBsAg; [4]) [µM] | IC50 (HBeAg; [5]) [µM] |
| --- | --- | --- | --- | --- | --- |
| O=C(NC1CC2(C1)CC(c1nc3cc(Cl)ccc3s1)C2)c1ccnc(NC2CC2)c1 (stereo not drawn) [Example 45, N-[6-(5-chloro-1,3-benzothiazol-2-yl)spiro[3.3]heptan-2-yl]-2-(cyclopropylamino)pyridine-4-carboxamide] | 6.08 | 5.18 | > 10 |  |  |
| NS(=O)(=O)c1cccc(C(=O)NC2CC3(C2)CC(c2nc4cc(Cl)ccc4s2)C3)c1 (stereo not drawn) [Example 2, N-[6-(5-chloro-1,3-benzothiazol-2-yl)spiro[3.3]heptan-2-yl]-3-sulfamoyl-benzamide] | 3.71 | 3.33 | > 10 |  |  |
| O=C(CC1CS(=O)(=O)C1)NC1CC2(C1)CC(c1nc3cc(Cl)ccc3s1)C2 (stereo not drawn) [Example 28, N-[6-(5-chloro-1,3-benzothiazol-2-yl)spiro[3.3]heptan-2-yl]-2-(1,1-dioxothietan-3-yl)acetamide] | 3.28 | 1.66 | > 10 |  |  |
| [H][C@]1(NC(=O)c2ccnc(C(N)=O)c2)C[C@@]2(C1)C[C@]([H])(c1nc3cc(Cl)ccc3s1)C2 (single isomer, unassigned) [Example 53-a, (Sa)-N4-[6-(5-chloro-1,3-benzothiazol-2-yl)spiro[3.3]heptan-2-yl]pyridine-2,4-dicarboxamide] |  |  | 36.8 | 0.29 | 0.24 |
| [H][C@]1(NC(=O)c2cc(C(N)=O)ncn2)C[C@@]2(C1)C[C@]([H])(c1nc3cc(Cl)ccc3s1)C2 (single isomer, unassigned) [Example 56-a, (Sa)-N6-[6-(5-chloro-1,3-benzothiazol-2-yl)spiro[3.3]heptan-2-yl]pyrimidine-4,6-dicarboxamide] | 3.29 | 2.47 | > 10 |  |  |
| O=C(NC1CC2(C1)CC(c1nc3cc(Cl)ccc3s1)C2)c1ccnc(N2CCCC2)c1 (stereo not drawn) [Example 50, N-[6-(5-chloro-1,3-benzothiazol-2-yl)spiro[3.3]heptan-2-yl]-2-pyrrolidin-1-yl-pyridine-4-carboxamide] | 9.95 | 9.63 | > 10 |  |  |
| O=C(CC1CCCS(=O)(=O)C1)NC1CC2(C1)CC(c1nc3cc(Cl)ccc3s1)C2 (stereo not drawn) [Example 30, N-[6-(5-chloro-1,3-benzothiazol-2-yl)spiro[3.3]heptan-2-yl]-2-(1,1-dioxothian-3-yl)acetamide] | 3.47 | 3.47 | > 10 |  |  |
| CCN1CC(C(=O)NC2CC3(C2)CC(c2nc4cc(Cl)ccc4s2)C3)CC1=O (stereo not drawn) [Example 31, N-[6-(5-chloro-1,3-benzothiazol-2-yl)spiro[3.3]heptan-2-yl]-1-ethyl-5-oxo-pyrrolidine-3-carboxamide] | 9.58 | 8.29 | > 10 |  |  |
| CC(C)(c1ccc(C(=O)NC2CC3(C2)CC(c2nc4cc(Cl)ccc4s2)C3)o1)S(C)(=O)=O (stereo not drawn) [Example 17, N-[6-(5-chloro-1,3-benzothiazol-2-yl)spiro[3.3]heptan-2-yl]-5-(1-methyl-1-methylsulfonyl-ethyl)furan-2-carboxamide] | 2.11 | 1.6 | 35.7 |  |  |
| CP(C)(=O)c1cccc(C(=O)NC2CC3(C2)CC(c2nc4cc(Cl)ccc4s2)C3)c1 (stereo not drawn) [Example 3, N-[6-(5-chloro-1,3-benzothiazol-2-yl)spiro[3.3]heptan-2-yl]-3-dimethylphosphoryl-benzamide] | 6.37 | 4.39 | > 10 |  |  |
| O=C(NC1CC2(C1)CC(c1nc3cc(Cl)ccc3s1)C2)c1ccnc(N2CCCCC2)c1 (stereo not drawn) [Example 51, N-[6-(5-chloro-1,3-benzothiazol-2-yl)spiro[3.3]heptan-2-yl]-2-(1-piperidyl)pyridine-4-carboxamide] | 5.51 | 4.35 | > 10 |  |  |
| CC(C)N(C)c1cc(C(=O)NC2CC3(C2)CC(c2nc4cc(Cl)ccc4s2)C3)ccn1 (stereo not drawn) [Example 49, N-[6-(5-chloro-1,3-benzothiazol-2-yl)spiro[3.3]heptan-2-yl]-2-[isopropyl(methyl)amino]pyridine-4-carboxamide] | 3.14 | 2.38 | > 10 |  |  |
| CS(=O)(=O)c1cc(C(=O)NC2CC3(C2)CC(c2nc4cc(Cl)ccc4s2)C3)ccn1 (stereo not drawn) [Example 36, N-[6-(5-chloro-1,3-benzothiazol-2-yl)spiro[3.3]heptan-2-yl]-2-methylsulfonyl-pyridine-4-carboxamide] | 1.08 | 0.86 | > 50 |  |  |
| CCN(CC)c1cc(C(=O)NC2CC3(C2)CC(c2nc4cc(Cl)ccc4s2)C3)ccn1 (stereo not drawn) [Example 48, N-[6-(5-chloro-1,3-benzothiazol-2-yl)spiro[3.3]heptan-2-yl]-2-(diethylamino)pyridine-4-carboxamide] | 5.92 | 4.96 | > 10 |  |  |
| NC(=O)c1cc(C(=O)NC2CC3(C2)CC(c2nc4cc(Cl)ccc4s2)C3)ccn1 (stereo not drawn) [Example 11, N4-[6-(5-chloro-1,3-benzothiazol-2-yl)spiro[3.3]heptan-2-yl]pyridine-2,4-dicarboxamide] | 4.06 | 6.81 | > 50 |  |  |
| Cc1cc(C(=O)NC2CC3(C2)CC(c2nc4cc(Cl)ccc4s2)C3)ccn1 (stereo not drawn) [Example 6, N-[6-(5-chloro-1,3-benzothiazol-2-yl)spiro[3.3]heptan-2-yl]-2-methyl-pyridine-4-carboxamide] | 3.63 | 3.3 | > 10 |  |  |
| [H][C@]1(NC(=O)c2ccnc(S(C)(=O)=O)c2)C[C@@]2(C1)C[C@]([H])(c1nc3cc(Cl)ccc3s1)C2 (single isomer, unassigned) [Example 54-a, (Sa)-N-[6-(5-chloro-1,3-benzothiazol-2-yl)spiro[3.3]heptan-2-yl]-2-methylsulfonyl-pyridine-4-carboxamide] |  |  | > 10 | 2.46 | 1.79 |
| O=C(NC1CC2(C1)CC(c1nc3cc(Cl)ccc3s1)C2)c1ccc(S(=O)(=O)NC2CCC2)o1 (stereo not drawn) [Example 22, N-[6-(5-chloro-1,3-benzothiazol-2-yl)spiro[3.3]heptan-2-yl]-5-(cyclobutylsulfamoyl)furan-2-carboxamide] | 1.39 | 1 | 21.9 |  |  |
| NC(=O)c1cc(C(=O)NC2CC3(C2)CC(c2nc4cc5c(cc4s2)OCO5)C3)ccn1 (stereo not drawn) [Example 12, N4-[6-([1,3]dioxolo[4,5-f][1,3]benzothiazol-6-yl)spiro[3.3]heptan-2-yl]pyridine-2,4-dicarboxamide] | 6.58 | 6.53 | 23.3 |  |  |
| CCN(C)c1cc(C(=O)NC2CC3(C2)CC(c2nc4cc(Cl)ccc4s2)C3)ccn1 (stereo not drawn) [Example 47, N-[6-(5-chloro-1,3-benzothiazol-2-yl)spiro[3.3]heptan-2-yl]-2-[ethyl(methyl)amino]pyridine-4-carboxamide] | 5.85 | 4.8 | > 10 |  |  |
| O=C(CC1CCCS1(=O)=O)NC1CC2(C1)CC(c1nc3cc(Cl)ccc3s1)C2 (stereo not drawn) [Example 29, N-[6-(5-chloro-1,3-benzothiazol-2-yl)spiro[3.3]heptan-2-yl]-2-(1,1-dioxothiolan-2-yl)acetamide] | 4.74 | 3.59 | > 10 |  |  |
